PubChem BioAssay (NCI)
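How tested: cells in 96-well plates exposed to compound for 48 hours at five concentrations. TGI: concentration producing complete growth inhibition.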

tested on: SK-MEL-2 melanoma; assay: NCI anticancer screen, dose series, 48 h

Structure (SMILES)	TGI
CN1[C@@H]2C[C@@H](OC(=O)[C@H](CO)c3ccccc3)C[C@H]1[C@@H]1O[C@@H]12	> 100 µM
N#Cc1c(Cl)cc(Cl)n2c1nc1ccccc12	33.4 µM
CC1=C(O)C(=O)C=C2C1=CC=C1[C@@]2(C)CC[C@@]2(C)[C@@H]3C[C@](C)(C(=O)O)CC[C@]3(C)CC[C@]12C	0.219 µM
COc1nc2nccnc2c(=O)n1C	> 10 µM
CCOC(=O)NC(Nc1cccc(C(F)(F)F)c1)(C(F)(F)F)C(F)(F)F	> 100 µM

tested on: SK-MEL-28 melanoma; assay: NCI anticancer screen, dose series, 48 h

Structure (SMILES)	TGI
CC1=CC(C/C(C)=C/COc2ccc3ccc(=O)oc3c2)OC1=O (centres undefined)	> 100 µM
CN1[C@@H]2C[C@@H](OC(=O)[C@H](CO)c3ccccc3)C[C@H]1[C@@H]1O[C@@H]12	> 100 µM
N#Cc1c(Cl)cc(Cl)n2c1nc1ccccc12	20.3 µM
CC1=C(O)C(=O)C=C2C1=CC=C1[C@@]2(C)CC[C@@]2(C)[C@@H]3C[C@](C)(C(=O)O)CC[C@]3(C)CC[C@]12C	0.0345 µM
COc1nc2nccnc2c(=O)n1C	> 10 µM
CCOC(=O)NC(Nc1cccc(C(F)(F)F)c1)(C(F)(F)F)C(F)(F)F	> 100 µM
COc1ccc2cc(C(C)C(=O)N3CCOC3=O)ccc2c1 (centres undefined)	> 100 µM

tested on: SK-MEL-5 melanoma; assay: NCI anticancer screen, dose series, 48 h

Structure (SMILES)	TGI
CC1=CC(C/C(C)=C/COc2ccc3ccc(=O)oc3c2)OC1=O (centres undefined)	> 100 µM
CN1[C@@H]2C[C@@H](OC(=O)[C@H](CO)c3ccccc3)C[C@H]1[C@@H]1O[C@@H]12	> 100 µM
N#Cc1c(Cl)cc(Cl)n2c1nc1ccccc12	32.7 µM
CC1=C(O)C(=O)C=C2C1=CC=C1[C@@]2(C)CC[C@@]2(C)[C@@H]3C[C@](C)(C(=O)O)CC[C@]3(C)CC[C@]12C	0.228 µM
COc1nc2nccnc2c(=O)n1C	> 10 µM
CCOC(=O)NC(Nc1cccc(C(F)(F)F)c1)(C(F)(F)F)C(F)(F)F	> 100 µM
COc1ccc2cc(C(C)C(=O)N3CCOC3=O)ccc2c1 (centres undefined)	> 100 µM

tested on: SK-OV-3 ovarian; assay: NCI anticancer screen, dose series, 48 h

Structure (SMILES)	TGI
CC1=CC(C/C(C)=C/COc2ccc3ccc(=O)oc3c2)OC1=O (centres undefined)	> 100 µM
CN1[C@@H]2C[C@@H](OC(=O)[C@H](CO)c3ccccc3)C[C@H]1[C@@H]1O[C@@H]12	> 100 µM
N#Cc1c(Cl)cc(Cl)n2c1nc1ccccc12	31.2 µM
CC1=C(O)C(=O)C=C2C1=CC=C1[C@@]2(C)CC[C@@]2(C)[C@@H]3C[C@](C)(C(=O)O)CC[C@]3(C)CC[C@]12C	1 µM
COc1nc2nccnc2c(=O)n1C	> 10 µM
CCOC(=O)NC(Nc1cccc(C(F)(F)F)c1)(C(F)(F)F)C(F)(F)F	> 100 µM
COc1ccc2cc(C(C)C(=O)N3CCOC3=O)ccc2c1 (centres undefined)	> 100 µM

tested on: SN12C renal; assay: NCI anticancer screen, dose series, 48 h

Structure (SMILES)	TGI
CC1=CC(C/C(C)=C/COc2ccc3ccc(=O)oc3c2)OC1=O (centres undefined)	> 100 µM
CN1[C@@H]2C[C@@H](OC(=O)[C@H](CO)c3ccccc3)C[C@H]1[C@@H]1O[C@@H]12	> 100 µM
N#Cc1c(Cl)cc(Cl)n2c1nc1ccccc12	42.1 µM
CC1=C(O)C(=O)C=C2C1=CC=C1[C@@]2(C)CC[C@@]2(C)[C@@H]3C[C@](C)(C(=O)O)CC[C@]3(C)CC[C@]12C	0.142 µM
COc1nc2nccnc2c(=O)n1C	> 10 µM
CCOC(=O)NC(Nc1cccc(C(F)(F)F)c1)(C(F)(F)F)C(F)(F)F	> 100 µM
COc1ccc2cc(C(C)C(=O)N3CCOC3=O)ccc2c1 (centres undefined)	> 100 µM

tested on: SNB-19 CNS; assay: NCI anticancer screen, dose series, 48 h

Structure (SMILES)	TGI
CC1=CC(C/C(C)=C/COc2ccc3ccc(=O)oc3c2)OC1=O (centres undefined)	> 100 µM
N#Cc1c(Cl)cc(Cl)n2c1nc1ccccc12	50.7 µM
CC1=C(O)C(=O)C=C2C1=CC=C1[C@@]2(C)CC[C@@]2(C)[C@@H]3C[C@](C)(C(=O)O)CC[C@]3(C)CC[C@]12C	0.23 µM
COc1nc2nccnc2c(=O)n1C	> 10 µM
CCOC(=O)NC(Nc1cccc(C(F)(F)F)c1)(C(F)(F)F)C(F)(F)F	> 100 µM
COc1ccc2cc(C(C)C(=O)N3CCOC3=O)ccc2c1 (centres undefined)	> 100 µM

tested on: SNB-75 CNS; assay: NCI anticancer screen, dose series, 48 h

Structure (SMILES)	TGI
CC1=CC(C/C(C)=C/COc2ccc3ccc(=O)oc3c2)OC1=O (centres undefined)	> 100 µM
N#Cc1c(Cl)cc(Cl)n2c1nc1ccccc12	32.7 µM
CC1=C(O)C(=O)C=C2C1=CC=C1[C@@]2(C)CC[C@@]2(C)[C@@H]3C[C@](C)(C(=O)O)CC[C@]3(C)CC[C@]12C	0.327 µM
COc1nc2nccnc2c(=O)n1C	> 10 µM
CCOC(=O)NC(Nc1cccc(C(F)(F)F)c1)(C(F)(F)F)C(F)(F)F	> 100 µM
COc1ccc2cc(C(C)C(=O)N3CCOC3=O)ccc2c1 (centres undefined)	> 100 µM

tested on: SR leukemia; assay: NCI anticancer screen, dose series, 48 h

Structure (SMILES)	TGI
CC1=CC(C/C(C)=C/COc2ccc3ccc(=O)oc3c2)OC1=O (centres undefined)	> 100 µM
CN1[C@@H]2C[C@@H](OC(=O)[C@H](CO)c3ccccc3)C[C@H]1[C@@H]1O[C@@H]12	> 100 µM
N#Cc1c(Cl)cc(Cl)n2c1nc1ccccc12	> 29.6 µM
CC1=C(O)C(=O)C=C2C1=CC=C1[C@@]2(C)CC[C@@]2(C)[C@@H]3C[C@](C)(C(=O)O)CC[C@]3(C)CC[C@]12C	0.0336 µM
